Laboratory results taken from US12617752B2, “Rapidly metabolized lipid compound” (Beijing Jitai Life Sciences Ltd, priority 2023, dated 2026).

Key:
[1] = Encapsulation efficiency of lipid nanoparticles (Quant-it RiboGreen RNA Assay); format: physicochemical; conditions: lipid nanoparticles with luciferase mRNA
Procedure, shortened: (§1)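 LNPs of ionizable lipid/cholesterol/phospholipid/PEG-lipid (50/38.5/10/1.5 mol%, N/P 6) were formed by microfluidic mixing with mRNA in pH 4.5 acetate, then buffer-exchanged by ultrafiltration. Size and PDI were measured by DLS. Encapsulation came from RiboGreen fluorescence (485/528 nm) in TE pH 7.5, with and without 0.5% Triton at 37 °C for 30 min.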

C57BL/6 mice = test: In vivo delivery of luciferase mRNA lipid nanoparticles in mice (bioluminescence imaging); conditions: intravenous, single dose 0.5 mg/kg luciferase mRNA
Procedure, shortened: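 Female C57BL/6 mice, 6-8 weeks old, received luciferase mRNA lipid nanoparticles as a single intravenous dose of 0.5 mg/kg mRNA. At 6 h, D-luciferin given intraperitoneally; 10 min later, mice were imaged under isoflurane anaesthesia. Values are group mean fluorescence intensity and total photon count.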

[2] = Particle size and PDI of lipid nanoparticles by dynamic light scattering; format: physicochemical; conditions: lipid nanoparticles with luciferase mRNA; ionizable lipid/cholesterol/DSPC/DMG-PEG2000 50/38.5/10/1.5 mol%
Procedure, shortened: as §1

[3] = Clearance rate of ionizable lipids in vivo (liver content by LC-MS/MS); conditions: C57 WT female mice, tail vein, 100 μL unloaded LNP (0.1 mg/mL)
Procedure: The 6-8 weeks old C57 WT female mice (n=3) were injected by tail vein administration of 100 μL of unloaded LNP (0.1 mg/mL) formed from the ionizable lipid, cholesterol, DSPC, and DMG-PEG 2000 at a ratio of 50:38.5:10:1.5. The experimental animals were executed by removing the cervical vertebrae and dissected for the liver at 24 h and 72 h after administration, respectively, while the same batch of non-dosed experimental animal livers were used as a blank control group. Water was added to the liver sample for homogenization, and the protein was precipitated. The content of the ionizable lipid in the sample was quantitatively analyzed using LC-MS/MS in comparison to a calibration standard prepared from matched blank liver tissues.

CCCCCCCCCOC(=O)CCCCCCCN(CCO)CCCCCCC(C)(C)C(=O)OC(CCCCCCCC)CCCCCCCC [1a]
Encapsulation efficiency (%) [1]: 94.61% | Total photon count in vivo at 6 hours after administration (Total Flux) (C57BL/6 mice): 3.52E+10 | Particle size (nm) [2]: 113.08 nm | Particle-size distribution (PDI) [2]: 0.022 | Percentage of cationic lipids in the liver in the total dose, 24 h after administration (%) [3]: <1% | Percentage of cationic lipids in the liver in the total dose, 72 h after administration (%) [3]: 0%

CCCCCCCCCC(=O)OCC(C)(C)CCCCCN(CCO)CCCCCCCC(=O)OC(CCCCCCCC)CCCCCCCC [1b]
Encapsulation efficiency (%) [1]: 89.89% | Total photon count in vivo at 6 hours after administration (Total Flux) (C57BL/6 mice): 9.34E+10 | Particle size (nm) [2]: 88.59 nm | Particle-size distribution (PDI) [2]: 0.031 | Percentage of cationic lipids in the liver in the total dose, 24 h after administration (%) [3]: 15 ± 4.2% | Percentage of cationic lipids in the liver in the total dose, 72 h after administration (%) [3]: <1%

CCCCCCCCCCCC(=O)OCC(C)(C)CCCCCN(CCO)CCCCCCC(=O)OCC(CCCCCCCCCC)CCCCCCCCCC [97b]
Encapsulation efficiency (%) [1]: 93.79% | Total photon count in vivo at 6 hours after administration (Total Flux) (C57BL/6 mice): 9.01E+10 | Particle size (nm) [2]: 85.56 nm | Particle-size distribution (PDI) [2]: 0.14

CCCCCCCCCCCC(=O)OCC(C)(C)CCCCCN(CCO)CCCCCCCCC(=O)OCC(CCCCCCCC)CCCCCCCC [98b]
Encapsulation efficiency (%) [1]: 93.04% | Total photon count in vivo at 6 hours after administration (Total Flux) (C57BL/6 mice): 1.07E+11 | Particle size (nm) [2]: 87.99 nm | Particle-size distribution (PDI) [2]: 0.18

CCCCCCCCCCC(=O)OCCC(C)(C)CCCCN(CCO)CCCCCCCC(=O)OCC(CCCCCCCC)CCCCCCCC [99b]
Encapsulation efficiency (%) [1]: 92.70% | Total photon count in vivo at 6 hours after administration (Total Flux) (C57BL/6 mice): 4.78E+10 | Particle size (nm) [2]: 85.13 nm | Particle-size distribution (PDI) [2]: 0.15

CCCCCCCCCCC(=O)OCCC(C)(C)CCCCN(CCCO)CCCCCCCC(=O)OCC(CCCCCCCC)CCCCCCCC [100b]
Encapsulation efficiency (%) [1]: 91.14% | Total photon count in vivo at 6 hours after administration (Total Flux) (C57BL/6 mice): 8.51E+10 | Particle size (nm) [2]: 101.50 nm | Particle-size distribution (PDI) [2]: 0.12

CCCCCCCCCCC(=O)OCCC(C)(C)CCCCN(CCCCO)CCCCCCCC(=O)OCC(CCCCCCCC)CCCCCCCC [101b]
Encapsulation efficiency (%) [1]: 81.76% | Total photon count in vivo at 6 hours after administration (Total Flux) (C57BL/6 mice): 5.39E+10 | Particle size (nm) [2]: 126.00 nm | Particle-size distribution (PDI) [2]: 0.10

CCCCCCCCCC(=O)OCCC(C)(C)CCCCN(CCO)CCCCCCC(=O)OCCC(CCCCCCC)CCCCCCC [102b]
Encapsulation efficiency (%) [1]: 93.92% | Total photon count in vivo at 6 hours after administration (Total Flux) (C57BL/6 mice): 7.52E+10 | Particle size (nm) [2]: 92.12 nm | Particle-size distribution (PDI) [2]: 0.16

CCCCCCCCCC(=O)OCCC(C)(C)CCCCN(CCCO)CCCCCCC(=O)OCCC(CCCCCCC)CCCCCCC [103b]
Encapsulation efficiency (%) [1]: 94.07% | Total photon count in vivo at 6 hours after administration (Total Flux) (C57BL/6 mice): 5.95E+10 | Particle size (nm) [2]: 96.82 nm | Particle-size distribution (PDI) [2]: 0.11

CCCCCCCCCC(=O)OCCC(C)(C)CCCCN(CCCCO)CCCCCCC(=O)OCCC(CCCCCCC)CCCCCCC [104b]
Encapsulation efficiency (%) [1]: 91.51% | Total photon count in vivo at 6 hours after administration (Total Flux) (C57BL/6 mice): 3.20E+10 | Particle size (nm) [2]: 135.57 nm | Particle-size distribution (PDI) [2]: 0.09

CCCCCCCCC(=O)OCCC(C)(C)CCCCCN(CCO)CCCCCCC(=O)OCC(CCCCCCCC)CCCCCCCC [105b]
Encapsulation efficiency (%) [1]: 94.38% | Total photon count in vivo at 6 hours after administration (Total Flux) (C57BL/6 mice): 9.24E+10 | Particle size (nm) [2]: 89.73 nm | Particle-size distribution (PDI) [2]: 0.16

CCCCCCCCCC(=O)OCCC(C)(C)CCCCCN(CCO)CCCCCCC(=O)OCC(CCCCCCCCC)CCCCCCCCC [106b]
Encapsulation efficiency (%) [1]: 94.89% | Total photon count in vivo at 6 hours after administration (Total Flux) (C57BL/6 mice): 1.42E+11 | Particle size (nm) [2]: 88.22 nm | Particle-size distribution (PDI) [2]: 0.15

CCCCCCCCCC(=O)OCCC(C)(C)CCCCCN(CCO)CCCCCCCCC(=O)OCC(CCCCCCC)CCCCCCC [107b]
Encapsulation efficiency (%) [1]: 94.05% | Total photon count in vivo at 6 hours after administration (Total Flux) (C57BL/6 mice): 1.98E+11 | Particle size (nm) [2]: 88.13 nm | Particle-size distribution (PDI) [2]: 0.16

CCCCCCCCCC(=O)OCCC(C)(C)CCCCCN(CCO)CCCCCCC(=O)OCCC(CCCCCCCC)CCCCCCCC [108b]
Encapsulation efficiency (%) [1]: 94.16% | Total photon count in vivo at 6 hours after administration (Total Flux) (C57BL/6 mice): 1.38E+11 | Particle size (nm) [2]: 86.61 nm | Particle-size distribution (PDI) [2]: 0.16

CCCCCCCCCC(=O)OCCC(C)(C)CCCCCN(CCCCO)CCCCCCC(=O)OCCC(CCCCCCCC)CCCCCCCC [109b]
Encapsulation efficiency (%) [1]: 93.00% | Total photon count in vivo at 6 hours after administration (Total Flux) (C57BL/6 mice): 1.90E+11 | Particle size (nm) [2]: 95.32 nm | Particle-size distribution (PDI) [2]: 0.13

CCCCCCCCC(=O)OCC(C)(C)CCCCCCN(CCO)CCCCCCC(=O)OCC(CCCCCCCC)CCCCCCCC [110b]
Encapsulation efficiency (%) [1]: 85.48% | Total photon count in vivo at 6 hours after administration (Total Flux) (C57BL/6 mice): 1.36E+11 | Particle size (nm) [2]: 133.93 nm | Particle-size distribution (PDI) [2]: 0.21

CCCCCCCCCC(=O)OCCCC(C)(C)CCCN(CCO)CCCCCCCCC(=O)OCC(CCCCCC)CCCCCC [111b]
Encapsulation efficiency (%) [1]: 63.26% | Total photon count in vivo at 6 hours after administration (Total Flux) (C57BL/6 mice): 3.98E+10 | Particle size (nm) [2]: 187.13 nm | Particle-size distribution (PDI) [2]: 0.21

CCCCCCCCCC(=O)OCCCC(C)(C)CCCN(CCCO)CCCCCCCCC(=O)OCC(CCCCCC)CCCCCC [112b]
Encapsulation efficiency (%) [1]: 69.74% | Total photon count in vivo at 6 hours after administration (Total Flux) (C57BL/6 mice): 1.31E+10 | Particle size (nm) [2]: 175.67 nm | Particle-size distribution (PDI) [2]: 0.17

CCCCCCCCCC(=O)OCCCC(C)(C)CCCN(CCCCO)CCCCCCCCC(=O)OCC(CCCCCC)CCCCCC [113b]
Encapsulation efficiency (%) [1]: 88.21% | Total photon count in vivo at 6 hours after administration (Total Flux) (C57BL/6 mice): 2.09E+10 | Particle size (nm) [2]: 147.03 nm | Particle-size distribution (PDI) [2]: 0.09

CCCCCCCCCCC(=O)OCCCC(C)(C)CCCN(CCCO)CCCCCCC(=O)OCC(CCCCCCCCC)CCCCCCCCC [114b]
Encapsulation efficiency (%) [1]: 93.55% | Total photon count in vivo at 6 hours after administration (Total Flux) (C57BL/6 mice): 4.53E+10 | Particle size (nm) [2]: 103.40 nm | Particle-size distribution (PDI) [2]: 0.13

CCCCCCCCCCC(=O)OCCCC(C)(C)CCCN(CCCCO)CCCCCCC(=O)OCC(CCCCCCCCC)CCCCCCCCC [115b]
Encapsulation efficiency (%) [1]: 93.91% | Total photon count in vivo at 6 hours after administration (Total Flux) (C57BL/6 mice): 3.71E+10 | Particle size (nm) [2]: 100.25 nm | Particle-size distribution (PDI) [2]: 0.12

CCCCCCCCCCC(=O)OCCCC(C)(C)CCCN(CCCCO)CCCCCCCCC(=O)OCC(CCCCCCC)CCCCCCC [116b]
Encapsulation efficiency (%) [1]: 90.71% | Total photon count in vivo at 6 hours after administration (Total Flux) (C57BL/6 mice): 1.96E+10 | Particle size (nm) [2]: 120.13 nm | Particle-size distribution (PDI) [2]: 0.09

CCCCCCCCCC(=O)OCC(C)(C)CCCCCN(CCCCO)CCCCCCCC(=O)OCC(CCCCCCC)CCCCCCC [117b]
Encapsulation efficiency (%) [1]: 72.51% | Total photon count in vivo at 6 hours after administration (Total Flux) (C57BL/6 mice): 1.73E+10 | Particle size (nm) [2]: 151.17 nm | Particle-size distribution (PDI) [2]: 0.09

CCCCCCCCCOC(=O)C(C)(C)CCCCCCN(CCO)CCCCCCC(C)(C)C(=O)OC(CCCCCCCC)CCCCCCCC [Control group, reference compound]
Percentage of cationic lipids in the liver in the total dose, 24 h after administration (%) [3]: 92 ± 3.5% | Percentage of cationic lipids in the liver in the total dose, 72 h after administration (%) [3]: 89 ± 4.7% | Percentage of cationic lipids in the liver in the total dose, 72 h after administration (%) ([3]; listed as control group): about 90%
